ChEMBL document CHEMBL1201862, “PubChem BioAssay data set” (2004)
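Dose response: 5 concentrations. Exposure: 48 h. Format: 96-well plates. Endpoint: linear interpolation; highest concentration if not reached. Abbreviation: GI50, concentration required for 50% inhibition of growth.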 Active and inactive are the calls of the source. No stated cut-off is given here; in the data, active = GI50 up to about 1.1 µM and inactive = higher.

Key:
Assay in all cases: DTP human tumour cell line panel, 48 h
[1] = system: A498
[2] = system: SNB-75
[3] = system: SN12C
[4] = system: SF-539
[5] = system: SR
[6] = system: HL-60
[7] = system: COLO 205
[8] = system: SNB-19
[9] = system: SK-MEL-2
[10] = system: HCC 2998
[11] = system: M19-MEL
[12] = system: SK-MEL-5
[13] = system: NCI-H23
[14] = system: LOX IMVI
[15] = system: U-251
[16] = system: OVCAR-5

Measured: GI50

O=C(/C=C/c1ccc(Cl)c(Cl)c1)c1ccc2ccccc2c1
inactive: [1] > 100 µM | [2] 52 µM | [3] 19.7 µM | [4] > 100 µM | [5] 47.9 µM | [6] 32.7 µM | [7] 13.6 µM | [8] > 100 µM | [9] > 100 µM | [10] > 100 µM | [11] > 100 µM | [12] > 100 µM | [13] > 100 µM | [14] > 100 µM | [15] > 100 µM | [16] > 100 µM

Cc1ccc(S(=O)(=O)c2ccc(C)cc2[N+](=O)[O-])cc1
inactive: [1] 19.4 µM | [2] > 100 µM | [3] > 100 µM | [4] > 100 µM | [5] 79.4 µM | [6] 29.3 µM | [7] > 100 µM | [8] > 100 µM | [9] > 100 µM | [10] > 100 µM | [11] 47.1 µM | [12] 24.4 µM | [13] 53.7 µM | [14] 82.8 µM | [15] > 100 µM | [16] > 100 µM

C[N+](C)(C)CC(=O)N/N=C(/C(=O)Nc1ccc(Br)cc1)C1C(=O)NC(=O)NC1=O
inactive: [1] > 100 µM | [2] > 100 µM | [3] > 100 µM | [4] > 100 µM | [5] > 100 µM | [6] > 100 µM | [7] > 100 µM | [8] > 100 µM | [9] > 100 µM | [10] > 100 µM | [11] > 100 µM | [12] > 100 µM | [13] > 100 µM | [14] > 100 µM | [15] > 100 µM | [16] > 100 µM

C(=C\c1c2oc(-c3ccccc3)cc(-c3ccccc3)c-2c2ccccc12)/C=C1\c2ccccc2-c2c(-c3ccccc3)cc(-c3ccccc3)[o+]c21.[O-][Cl+3]([O-])([O-])[O-]
inactive: [1] > 100 µM | [2] 45.9 µM | [3] > 100 µM | [4] > 100 µM | [5] > 100 µM | [6] > 100 µM | [7] > 100 µM | [8] > 100 µM | [9] > 100 µM | [10] > 100 µM | [11] > 100 µM | [12] > 100 µM | [13] > 100 µM | [14] > 100 µM | [15] > 100 µM | [16] > 100 µM

CC[C@]1(O)C(=O)OCc2c1cc1n(c2=O)Cc2cc3c(N)cccc3nc2-1
inactive: [1] > 100 µM | [2] 20.5 µM | [3] > 100 µM | [4] > 100 µM | [5] > 100 µM | [6] > 100 µM | [7] > 100 µM | [8] > 100 µM | [9] > 100 µM | [10] > 100 µM | [11] > 100 µM | [12] > 100 µM | [13] > 100 µM | [14] > 100 µM | [15] > 100 µM | [16] > 100 µM
